The subject of test [1] is rat C6 glioma tumor xenografts. Nature of the test: Rat C6 glioma tumor xenografts in female BALB/C mice. The format is in vivo. As to conditions: for Delta tumor volumes (mean mm^3±SEM): q7d (i.v., days 3 and 10) alone, control 1289±178. As to the method: STI571 Alone, Epothilone B (EPO906) Alone and the Combination of STI571 Plus Epothilone B Versus Rat C6 Glioma Tumor Xenografts in Female BALB/C Mice
Tumors are initiated by the s.c. injection of 1×10^6 rat C6 cells (n=8/group). When the tumors reaches ˜75 mm^3, STI571 treatment is begun at 200 mg/kg, p.o., q24h.

The test system of test [2] is KAT-4 mouse thyroid carcinoma. Description: KAT-4 thyroid carcinoma tumors in SCID mice. The format is in vivo. As to conditions: for effect on tumor growth: STI571 100 mg/kg gavage once daily from day 3, EPO906 0.3 mg/kg s.c. days 6, 13, 20. As to the method: Study on the Effects of Combining Epothilone B Treatment of KAT-4 Mouse Thyroid Carcinoma with Treatment with STI571
Epothilone B is administered s.c. once weekly. STI571, at a dose of 100 mg/kg, is administered by gavage and given once daily. Tumor volume is determined by mesurements with calipers.
In the study four groups of tumor bearing mice are analyzed: control treated mice, mice treated with either STI571 (100 mg/kg) or 0.3 mg/kg of EPO906 alone and mice treated with both drugs. Treatment is performed on mice with an average starting size of tumor of approximatly 100 mm^3. EPO906 is given at days 6, 13 and 20 and STI571 is given once daily from day 3.

In the case of `C/C(=C\c1csc(C)n1)[C@@H]1C[C@@H]2O[C@]2(C)CCC[C@H](C)[C@H](O)[C@@H](C)C(=O)C(C)(C)[C@@H](O)CC(=O)O1` [EPO906, epothilone B], the “Delta tumor volumes (mean mm^3±SEM)” value in test [1] (EPO906 1 mg/kg) came to 864±115 mm^3; in test [1] (EPO906 2 mg/kg), 419±116 mm^3. In addition, in test [1] (STI571 200 mg/kg p.o. q24h, EPO906 2 mg/kg q7d), the “Delta tumor volume ratio treated/controls” value worked out at 0.325. Besides, the “effect on tumor growth” value in test [2] is recorded as “statistically significant reduction of tumor growth”. Also, in test [2] (end of experiment, STI571 100 mg/kg once daily, EPO906 0.3 mg/kg once weekly), the “final tumor size as % of control tumors” value was determined as 69%.

Regarding `Cc1ccc(NC(=O)c2ccc(CN3CCN(C)CC3)cc2)cc1Nc1nccc(-c2cccnc2)n1` [STI571, N-{5-[4-(4-methyl-piperazino-methyl)-benzoylamido]-2-methylphenyl}-4-(3-pyridyl)-2-pyrimidine-amine], the “effect on tumor growth” value in test [2] is recorded as “no effect”.
